The record followed here is patent US6337348B1, “Oxy-vanadium (iv) complexes having spermicidal activity” (Parker Hughes Institute, priority 1998, dated 2002).

Common to all, as to assay type: cell-based
Assay [1] relates to human sperm. As to the kind of experiment: Flow cytometric quantitation of sperm acrosome reaction (anti-CD46 mAb binding). Particulars: tested at 100 μM, 3 hours, 37° C., mean of two experiments. As to the method: In experiments designed to assess the comparative effects of oxovanadium (IV) complexes and N-9 on sperm acrosome reaction, motile fractions of sperm (10^7/ml) prepared from a single donor were incubated in 1 ml of BWW−0.3% BSA in the presence of 100 μM each of the vanadocene complexes, VO(phen), VO(phen)2, VO(Me2—phen), VO(Me2—phen)2, VO(Cl—phen), VO(Cl—phen)2, VO(bipy), VO(bipy)2, VO(Me2—bipy), VO(Me2—bipy)2, and VO(Br,OH—acph)2 in 0.1% DMSO, N-9, or DMSO (0.1%) alone at 37° C. After 3 hours, 5 μg/ml of purified, phycoerythrin (PE)-conjugated murine anti-CD46 monoclonal antibody (mAb; clone 122-2; Research Diagnostics, Flanders, N.J.) was added and the sperm suspensions incubated for an additional 30 minutes. The suspensions was washed in Tyrode's salt solution (Sigma) containing 1% BSA (1% TBSA) and the percentage of CD46-positive sperm were analyzed by flow cytometry using a FACS Vantage flow cytometer (Becton Dickinson, Mountain View, Calif.), as described previously (DeCruz et al., 1996, Biol Reprod. 54:1217-1228; DeCruz et al., 1992, Fertil. Seril., 58:633-636). Two separate experiments were performed to quantitate acrosomal loss following exposure of sperm to oxovanadium (IV) complexes.
(In general: In flow cytometry, cells or beads pass a laser one at a time.)

Assay [2] deals with human sperm. As to the kind of experiment: Sperm immobilization assay (SIA), motility by CASA. The settings on record: for EC50: read-out: EC50 (concentration that decreases the proportion of motile sperm by 50%), 3 hours incubation at 37° C., BWW-0.3% BSA, serial 2-fold dilutions 250 μM to 1.9 μM, mean of two experiments. As to the method: To evaluate the spermicidal effects of complexes of oxovanadium (IV), VO(phen), VO(phen)2, VO(Me2—phen), VO(Me2—phen)2, VO(Cl—phen), VO(Cl—phen)2], VO(bipy), VO(bipy)2, VO(Me2—bipy), VO(Me2—bipy)2, and VO(Br,OH—acph)2, a highly motile fraction of pooled donor sperm (N=5) was prepared by discontinuous (90−45%). Percoll gradient (Conception Technologies, San Diego, Calif.) centrifugation and the “swim-up” method as described previously (Aitken et al., 1989, Biol. Reprod. 40:183-197). All donor specimens were obtained after informed consent and in compliance with the guidelines of the Hughes Institutional Review Board. Motile sperm (≳10×10^6/ml) were suspended in 1 ml of Biggers, Whitten, and Whittingham's medium (BWW) containing 0.3% BSA (fraction V; Sigma Chemical Co., St. Louis, Mo.) in the presence and absence of serial 2-fold dilutions of test substance (250 μM−1.9 μM) in 0.25% dimethyl sulfoxide (DMSO). For each experiment, fresh stock solutions (100 mM) of vanadium compounds were prepared in DMSO. A corresponding volume of DMSO (0.25%) was added to control sperm suspension. After 3 hours of incubation at 37° C., the percentage of motile sperm was evaluated by computer-assisted sperm motion analysis (CASA) as described previously (Aitken et al., 1989, Supra). The percentages of motilities were compared with those of sham-treated control suspensions of motile sperm.
For CASA, 4 μl each of sperm suspension was loaded into two 20 μm Microcell chambers placed onto a counting chamber at 37° C. At least 5-8 fields per chamber were scanned for analysis using a Hamilton Thorne Integrated Visual Optical System (IVOS) version 10 instrument (Hamilton Thorne Research Inc., Danvers, Mass.). Each field was recorded for 30 seconds. The Hamilton Thorne computer calibrations were set at 30 frames at a frame rate of 30 images/seconds. Other settings were as follows: minimum contrast 8; minimum size 6; low-size gate, 1.0; high-size gate,2.9; low-intensity gate, 0.6; high-intensity gate, 1.4; phase-contrast illumination; low path velocity at 10 μm/seconds and threshold straightness at 80%; magnification factor, 1.95. The performance of the analyzer was periodically checked using the playback function.
Results for the various numerical sperm functional parameters are presented as mean±standard deviation (SD) values. Comparison between oxovanadium (IV) complex-treated and control sperm relative to sperm motility parameters and apoptosis were performed using paired, two-tailed Student's T-test. A p value of <0.05 was considered significant.

The test system of assay [3] is human sperm. As to the kind of experiment: Mitochondrial transmembrane potential (JC-1 dye) flow cytometry. Particulars: 100 μM, 3 hours, 37° C. An excerpt: The loss of ΔΨm, a early marker for apoptosis was quantitated by flow cytometry using the lipophilic cationic dye, 5,5′,6,6′-tetrachloro 1,1′,3,3′-tetraethylbenzimidazolecarbocyanine iodide (JC-1) as described in Cossarizza et al., 1993, BBRC 197:40-45. This dye accumulates in the mitochondrial matrix under the influence of the ΔΨm. The molecule is able to selectively enter into mitochondria, the monomeric form emitting at 527 nm after excitation at 490 nm. However, depending on the membrane potential, JC-1is able to form J-aggregates that are associated with a large shift in emission (590 nm). The color of the dye changes reversibly from green to greenish orange at ΔΨm becomes more polarized.
To quantitate changes in sperm ΔΨm following oxovanadium (IV) complex exposure, highly motile fraction of sperm (10^7/ml) in duplicate aliquots, were incubated at 37° C. for 3 hours in BWW−0.3% BSA medium in the presence and absence of 100 μM each of the vanadocene complexes, VO(phen), VO(phen)2, VO(Me2—phen), VO(Me2—phen)2, VO(Cl—phen), VO(Cl—phen)2, VO(bipy), VO(bipy)2, VO(Me2—bipy), VO(Me2—bipy)2, and VO(Br,OH—acph)2. Following incubation, 10 μg/ml JC-1 (Molecular Probes, Eugene, Oreg.) was added from a stock solution in DMSO (1 mg/ml) to the sperm suspension and incubated for an additional 10 minutes. At the end of the incubation period, sperm were washed in Tyrode's salt solution (Sigma), resuspended in 200 μl, and analyzed by flow cytometry for JC-1-specific fluorescence. The excitation was at 488 nm; the emissions for green and red/orange fluorescence were 530 nm and 575 nm respectively. JC-1 monomer and aggregated fluorescence were simultaneously measured in oxovanadium (IV) complex-exposed and control sperm. The percentages of sperm positive for green, orange, and greenish orange were determined using the cutoff signals for JC-1 labeled motile sperm.

Consider “(aqua)bis(4,4′-dimethyl-2,2′-bipyridyl)oxovanadium (IV) sulfate [VO(Me2-bipy)2]”, for which the “Anti-CD46 positive sperm (%)” value in the assay with human sperm [1] stood at 3.2%. Besides, the EC50 with human sperm [2] worked out at 72.5 µM. For the same molecule, in the assay on human sperm [3], the “JC-1 aggregate-positive sperm (%)” value came out at 62%.
The matching figures for `O.O.O=S(=O)([O-])[O-].[O]=[V+2].c1ccc(-c2ccccn2)nc1` [VO(bipy), (diaqua)(2,2′-bipyridyl)oxovanadium (IV) sulfate]: 6.1%, 118 µM and 95%.
For the molecule “(diaqua)(4,4′-dimethyl-2,2′-bipyridyl)oxovanadium (IV) sulfate [VO(Me2-bipy)]”, in the assay on human sperm [1], the “Anti-CD46 positive sperm (%)” value is on record as 6.4%. Further, in the assay on human sperm [2], the EC50 was 83 µM. Also, the “JC-1 aggregate-positive sperm (%)” value in the assay with human sperm [3] is recorded as 88%.
For `Clc1cc2cccnc2c2ncccc12.O.O.O=S(=O)([O-])[O-].[O]=[V+2]` [VO(Cl-phen), (diaqua)(5-chloro-1,10-phenanthroline)oxovanadium (IV) sulfate], in that order: 11.2%, 39.1 µM and 39%.
Turning to `Clc1cc2cccnc2c2ncccc12.Clc1cc2cccnc2c2ncccc12.O.O=S(=O)([O-])[O-].[O]=[V+2]` [VO(Cl-phen)2, (aqua)bis(5-chloro-1,10-phenanthroline)oxovanadium (IV) sulfate], the “Anti-CD46 positive sperm (%)” value in the assay on human sperm [1] and with human sperm [1] (listed as VO(Cl—phen)2) was 21.5% in each case. Moreover, in the assay on human sperm [2] (identical experimental conditions), the “fold more potent than N-9 (spermicidal activity)” value worked out at 14 fold. In addition, the EC50 in the assay on human sperm [2] was found to be 5.5 µM. Moreover, the “JC-1 aggregate-positive sperm (%)” value in the assay on human sperm [3] stood at 35%.
With `O.O.O=S(=O)([O-])[O-].[O]=[V+2].c1cnc2c(c1)ccc1cccnc12` [VO(phen), (diaqua)(1,10-phenanthroline)oxovanadium (IV) sulfate], the “Anti-CD46 positive sperm (%)” value with human sperm [1] is on record as 9.7%. The EC50 in the assay on human sperm [2] turned out to be 37 µM. For the same molecule, the “JC-1 aggregate-positive sperm (%)” value in the assay on human sperm [3] stood at 35%.
The matching figures for `O.O=S(=O)([O-])[O-].[O]=[V+2].c1cnc2c(c1)ccc1cccnc12.c1cnc2c(c1)ccc1cccnc12` [VO(phen)2, (aqua)bis(1,10-phenanthroline)oxovanadium (IV) sulfate]: 9.9%, 6.5 µM and 25%.
The matching figures for `Cc1ccnc2c1ccc1c(C)ccnc12.Cc1ccnc2c1ccc1c(C)ccnc12.O.O=S(=O)([O-])[O-].[O-2].[V+4]` [VO(Me2-phen)2, (aqua)bis(4,7-dimethyl-1,10-phenanthroline)oxovanadium (IV) sulfate]: 11.7%, 47.9 µM and 63%.
Take “bis(5′-bromo-2′-hydroxyacetophenone)oxovanadium (IV) [VO(Br,OH-acph)2]”: the “Anti-CD46 positive sperm (%)” value with human sperm [1] and with human sperm [1] (listed as VO(Br,OH—acph)2) was 24.3% each time. Further, the EC50 with human sperm [2] is 13.4 µM. The “JC-1 aggregate-positive sperm (%)” value in the assay on human sperm [3] was 83%.
Regarding `Cc1ccnc2c1ccc1c(C)ccnc12.O.O.O=S(=O)([O-])[O-].[O]=[V+2]` [VO(Me2-phen), (diaqua)(4,7-dimethyl-1,10-phenanthroline)oxovanadium (IV) sulfate], the “Anti-CD46 positive sperm (%)” value with human sperm [1] amounted to 14.0%. Moreover, the EC50 in the assay with human sperm [2] stood at 20.5 µM. Further, the “JC-1 aggregate-positive sperm (%)” value in the assay with human sperm [3] is on record as 38%.
The matching figures for `O.O=S(=O)([O-])[O-].[O-2].[V+4].c1ccc(-c2ccccn2)nc1.c1ccc(-c2ccccn2)nc1` [VO(bipy)2, (aqua)bis(2,2′-bipyridyl)oxovanadium (IV) sulfate]: 4.7%, 35.3 µM and 94%.
